Read-outs that look alike come from different tables or passages of the source.
Tests used:
Type in all cases: cell-based
[1] = target: T1, TEAD3 (Homo sapiens, UniProt Q99594); experiment: ELISA assay in H226 cells, TEAD3; set-up: endogenous in cells; host or cells: H226
Method: (§1) ELISA: 750k cells were plated per well of 6-well plate for 24 hours, treated with compounds overnight, cells were then lysed in lysis Buffer with 5 mg/mL protease inhibitor (Cell Signaling #9803), centrifuged at 12000 g for 5 min. Cell lysates were normalized to 2 mg/mL for subsequent assays. A 96-well assay plate (Corning #3690) was coated with TEAD antibodies (anti-TEAD1: Cell Signaling #12292, 1:100; anti-TEAD2: LSBio #LS-C101693-100, 1:50; anti-TEAD3: Abcam #ab75192, 1:100; anti-TEAD4: Abcam #ab58310, 1:400) overnight at 4° C. Plates were washed with TBST (Thermo Fisher #28360) for 3 times, blocked in 100 μL blocking buffer (2% BSA-TBST, Sigma #A7030) for 1 hour at room temperature. 50 μL cell lysates were incubated overnight at 4° C. with shaking. The next day, plates were washed with TBST three times, incubated with 1:125 anti-YPA-HRP (Cell Signaling #15028S) for 4 hours at 4° C., followed by 3× washing in TBST, then incubated in HRP substrate (Thermo Fisher #34021) for 10 min at room temperature, reaction was stopped by TMB stop solution (Thermo Fisher #N600). Signal was read at wavelength 450 nm.
Target sequence in this assay (Q99594 2-435 limits assumed): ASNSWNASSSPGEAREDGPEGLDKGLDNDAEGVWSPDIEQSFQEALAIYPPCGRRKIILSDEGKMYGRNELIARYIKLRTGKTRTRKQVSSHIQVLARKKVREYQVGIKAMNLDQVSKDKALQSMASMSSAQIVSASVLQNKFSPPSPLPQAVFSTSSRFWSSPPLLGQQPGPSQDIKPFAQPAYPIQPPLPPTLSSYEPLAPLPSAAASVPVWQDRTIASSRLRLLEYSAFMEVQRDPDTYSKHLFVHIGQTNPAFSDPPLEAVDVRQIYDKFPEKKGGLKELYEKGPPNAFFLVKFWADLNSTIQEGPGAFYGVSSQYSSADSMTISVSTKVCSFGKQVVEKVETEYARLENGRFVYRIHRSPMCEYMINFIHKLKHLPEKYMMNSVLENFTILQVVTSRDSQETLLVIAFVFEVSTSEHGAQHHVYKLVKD

[2] = tested on: H2052 cells; experiment: Cell proliferation and viability assay (CPA) in H2052 cells; details: for IC50: Homo sapiens, NCI-H2052, read-out: CPA H2052 IC50 Ave
Method: (§2) Compound potency and efficacy in inhibiting cell proliferation and viability was assessed in multiple cell lines. For example, NCI-H226 cells (ATCC #CRL-5826) were seeded at 2000 cells in 200 μL medium per well of a 96-well plate (Corning #3610) and incubated at 37° C. for 24 hours, then treated with serial diluted compounds for up to 6 d. Viable cells were measured by CellTiter-Glo 2.0 Cell Viability Assay (Promega #G9243), and the luminescence signal was read using an EnSight Multimode plate reader (PerkinElmer, model 9MLDHH34000000, integration time 100 ms) with Kaleido 3.0. software. For data analysis, dose-dependent curves were plotted as “inhibition” (% of DMSO-treated control wells), and were fitted by four-parametric model in GraphPad Prism to obtain IC50 values.
(§3) Alternatively, cells were plated at 2000 cells in 200 μL medium per well of a 96-well plate (Corning #3585) overnight, treated with compound for 7 days, cell density images taken by Incycte S3 live cell analysis instrument (Sartorius) every 24 hours at the same time. Images were analyzed by Incucyte's AI-driven software to get C “% confluence” for every image. Dose-dependent curves were plotted as “% inhibition” (% o of DMSO-treated control wells) and were fitted by four-parametric model in GraphPad Prism to obtain IC50 values.

[3] = tested on: NCI-H226 cells; experiment: Cell proliferation and viability assay (CPA) in NCI-H226 cells; details: up to 6 d; for IC50: Homo sapiens, 144 h, read-out: CPA NCI-H226 IC50 Ave
Method: Compound potency and efficacy in inhibiting cell proliferation and viability was assessed in multiple cell lines. For example, NCI-H226 cells (ATCC #CRL-5826) were seeded at 2000 cells in 200 μL medium per well of a 96-well plate (Corning #3610) and incubated at 37° C. for 24 hours, then treated with serial diluted compounds for up to 6 d. Viable cells were measured by CellTiter-Glo 2.0 Cell Viability Assay (Promega #G9243), and the luminescence signal was read using an EnSight Multimode plate reader (PerkinElmer, model 9MLDHH34000000, integration time 100 ms) with Kaleido 3.0. software. For data analysis, dose-dependent curves were plotted as “inhibition” (% of DMSO-treated control wells), and were fitted by four-parametric model in GraphPad Prism to obtain IC50 values. […]

[4] = tested on: TEAD1; experiment: MCF-7 TEAD1-luciferase reporter assay (MCF7-TEAD-Luc); details: MCF7 cells, overnight; for IC50: Homo sapiens; for TEAD1-Luc MCF7: Max Inhibition: % of DMSO-treated control
Method in brief: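 MCF7 cells with a TEAD luciferase reporter were seeded at 10,000 per well, grown 24 hours at 37° C, then treated overnight with serially diluted compound. Luciferase signal was normalized as % inhibition relative to DMSO controls, and IC50 came from a four-parameter fit.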

[5] = tested on: TEAD1; experiment: Palmitoylation assay, TEAD1 (HEK293T cells); details: 3 um compound, 24 hours
Method: (§4) Tagged TEAD constructs were cloned in pTriEx-6 (Novagen #71559) and transiently transfected into HEK293T cells for 24 hours. Then cells were treated with compounds for 24 hours, or treated with compounds plus 25 μM alkyne palmitic acid (for palmitoylation assay), and cell pellets were collected. Cells were lysed in lysis Buffer (100 mM Tris-HCl, 150 mM NaCl, 1% Triton, 5 mg/mL protease inhibitor cocktail), centrifuged for 10 min at 15000 g, TEAD proteins were pulled down and subjected to click-chemistry with TAMRA azide (Click Chemistry Tools #AZ109) to label compound-modified protein. Protein bands were separated by SDS-gel electrophoresis, target bands at expected molecular size were visualized using BioRad ChemiDoc Imaging system, band intensities were quantified by Image Studio.

[6] = tested on: TEAD1; experiment: ELISA assay in H226 cells, TEAD1; details: Homo sapiens, NCI-H226, overnight
Method: as §1

[7] = target: T2, TEAD4 (Homo sapiens, UniProt Q15561); experiment: ELISA assay in H226 cells, TEAD4; set-up: endogenous in cells; host or cells: H226; details: overnight
Method: as §1

[8] = target: T3, TEAD2 (Homo sapiens, UniProt Q15562); experiment: ELISA assay in H226 cells, TEAD2; set-up: endogenous in cells; host or cells: H226
Method: as §1

[9] = target: T2, TEAD4; experiment: Palmitoylation assay, TEAD4 (HEK293T cells); set-up: unspecified tag; expressed in transfected cells; host or cells: HEK293T; details: 3 um compound, 24 hours
Method: as §4

[10] = target: T3, TEAD2; experiment: Palmitoylation assay, TEAD2 (HEK293T cells); set-up: unspecified tag; expressed in transfected cells; host or cells: HEK293T; details: 3 um compound, 24 hours
Method: as §4

[11] = target: T1, TEAD3; experiment: Palmitoylation assay, TEAD3 (HEK293T cells); set-up: unspecified tag; expressed in transfected cells; host or cells: HEK293T; details: 3 um compound, 24 hours
Method: as §4
Target sequence in this assay (Q99594 whole entry): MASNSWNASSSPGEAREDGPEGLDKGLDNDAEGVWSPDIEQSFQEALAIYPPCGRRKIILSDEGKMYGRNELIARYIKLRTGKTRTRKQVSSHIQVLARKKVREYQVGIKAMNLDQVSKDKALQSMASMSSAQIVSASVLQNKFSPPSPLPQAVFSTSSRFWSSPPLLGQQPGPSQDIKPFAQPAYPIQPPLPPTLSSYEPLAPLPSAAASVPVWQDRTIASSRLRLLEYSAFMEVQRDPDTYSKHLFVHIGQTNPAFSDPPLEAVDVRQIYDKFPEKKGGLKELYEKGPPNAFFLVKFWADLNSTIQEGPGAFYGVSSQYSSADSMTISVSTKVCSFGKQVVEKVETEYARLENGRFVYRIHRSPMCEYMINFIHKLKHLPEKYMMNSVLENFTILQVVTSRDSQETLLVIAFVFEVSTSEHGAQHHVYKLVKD

[12] = tested on: NCI-H226 cells; experiment: Cell proliferation and viability assay (CPA) in NCI-H226 cells; details: up to 6 d; for IC50: Homo sapiens, 144 h, read-out: CPA NCI-H226 IC50 Ave; remark: listed apart in the source
Method: as §2, §3

T2 sequence (Q15561 whole entry): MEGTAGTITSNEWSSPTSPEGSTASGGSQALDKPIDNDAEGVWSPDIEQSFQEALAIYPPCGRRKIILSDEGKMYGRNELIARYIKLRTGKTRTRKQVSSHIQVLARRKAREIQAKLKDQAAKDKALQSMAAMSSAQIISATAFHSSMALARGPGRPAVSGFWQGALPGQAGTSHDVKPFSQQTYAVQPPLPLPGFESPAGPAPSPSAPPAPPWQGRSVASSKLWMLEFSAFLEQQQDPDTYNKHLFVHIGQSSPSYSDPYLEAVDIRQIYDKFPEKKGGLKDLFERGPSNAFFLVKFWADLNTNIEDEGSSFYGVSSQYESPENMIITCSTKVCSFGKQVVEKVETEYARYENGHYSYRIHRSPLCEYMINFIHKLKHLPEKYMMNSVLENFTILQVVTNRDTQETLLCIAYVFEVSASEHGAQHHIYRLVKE
T3 sequence (Q15562 whole entry): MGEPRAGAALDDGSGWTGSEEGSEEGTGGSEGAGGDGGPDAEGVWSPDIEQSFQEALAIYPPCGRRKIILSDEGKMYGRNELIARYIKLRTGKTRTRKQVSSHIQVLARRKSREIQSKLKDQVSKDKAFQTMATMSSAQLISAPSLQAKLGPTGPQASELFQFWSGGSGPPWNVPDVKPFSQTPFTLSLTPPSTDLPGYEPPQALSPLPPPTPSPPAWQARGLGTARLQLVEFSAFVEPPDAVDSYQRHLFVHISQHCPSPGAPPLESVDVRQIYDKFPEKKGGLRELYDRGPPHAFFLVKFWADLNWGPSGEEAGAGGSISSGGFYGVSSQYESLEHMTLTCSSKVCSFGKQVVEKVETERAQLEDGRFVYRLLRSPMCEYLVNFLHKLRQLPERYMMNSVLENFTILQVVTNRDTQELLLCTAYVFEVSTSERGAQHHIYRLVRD

Compound | IC50 ([1]; overnight) | CPA H2052 Max Inh Ave [2] | IC50 [2] | IC50 [3] | CPA NCI-H226 Max Inh Ave [3] | IC50 [4] | TEAD1-Luc MCF7: Max Inhibition [4] | TEAD1 Inh (palmitoylation) [5] | IC50 [6] | IC50 [7] | IC50 ([8]; overnight) | TEAD4 Inh (palmitoylation) [9] | TEAD2 Inh (palmitoylation) [10] | TEAD3 Inh (palmitoylation) [11] | IC50 [1] | IC50 [8] | IC50 [12] | CPA NCI-H226 Max Inh Ave [12]
C=CC(=O)N1CC[C@H](/C=C/c2ccc(C(F)(F)F)cc2)C1 (single isomer, unassigned) [Example 10] | 7.2 nM | B (75% > B ≥ 50%) | ≤ 100 nM | ≤ 100 nM | B (75% > B ≥ 50%) | ≤ 10 nM | A (A ≥ 75%) | 94% | 13 nM | 1010 nM | 89 nM | 52% | 57% | 98% | – | – | – | –
C=CC(=O)N1C[C@@H](/C=C/c2ccc(C(F)(F)F)cc2)[C@H](Nc2ncccn2)C1 (single isomer, unassigned) [Example 83] | 107 nM | – | – | – | – | 10 to 100 nM | A (A ≥ 75%) | 93% | 66.4 nM | 219 nM | 17.7 nM | 52% | 54% | 90% | – | – | – | –
C=CC(=O)N1C[C@@H](C)[C@H](/C=C/c2ccc(C(F)(F)F)cc2)C1 (stereo in doubt) [Example 39, 1-((3S*,4S*)-3-methyl-4-((E)-4-(trifluoromethyl)styryl)pyrrolidin-1-yl)prop-2-en-1-one] | – | – | – | – | – | 10 to 100 nM | A (A ≥ 75%) | 89% | – | – | – | 18% | 32% | 90% | – | – | – | –
C=CC(=O)N1CC(/C=C/c2ccc(C(F)(F)F)cc2)C1 [Example 15] | – | B (75% > B ≥ 50%) | ≤ 100 nM | – | – | ≤ 10 nM | A (A ≥ 75%) | 97% | 14 nM | – | – | 80% | 80% | 98% | 4 nM | 179 nM | 100 to 500 nM | B (75% > B ≥ 50%)
C=CC(=O)N1CC(/C=C/c2cc(C(F)(F)F)on2)C1 [Example 21, (E)-1-(3-(2-(5-(trifluoromethyl)isoxazol-3-yl)vinyl)azetidin-1-yl)prop-2-en-1-one] | – | B (75% > B ≥ 50%) | ≤ 100 nM | 100 to 500 nM | A (A ≥ 75%) | ≤ 10 nM | A (A ≥ 75%) | 96% | – | – | – | 33% | 70% | 96% | – | – | – | –
C=CC(=O)N1CCC(C#Cc2ccc(C(F)(F)F)cc2)C1 (stereo not shown) [Example 38, 1-(3-((4-(trifluoromethyl)phenyl)ethynyl)pyrrolidin-1-yl)prop-2-en-1-one] | 5.6 nM | B (75% > B ≥ 50%) | ≤ 100 nM | ≤ 100 nM | B (75% > B ≥ 50%) | ≤ 10 nM | A (A ≥ 75%) | 93% | 8.7 nM | 15.5 nM | 3.4 nM | 71% | 69% | 95% | – | – | – | –
C=CC(=O)N1CC[C@H](C/C=C/c2ccc(C(F)(F)F)cc2)C1 [Example 85] | – | B (75% > B ≥ 50%) | ≤ 100 nM | – | – | ≤ 10 nM | A (A ≥ 75%) | – | – | – | – | – | – | – | – | – | 100 to 500 nM | B (75% > B ≥ 50%)
